# Structures can show the parent of a compound that is named as a salt.
# Target: T1, MASP-2 (CCP1-CCP2-SP) (Homo sapiens, UniProt O00187)
# T1 construct: 15 μL of Enzyme MASP-2 (CCP1-CCP2-SP) in Assay Buffer
# Assay: Enzymatic Assay for MASP-2 (fluorogenic substrate)
# Assay type: biochemical
# Conditions: fluorogenic substrate based on C2 cleavage site; room temperature, 20 min; 20 mM HEPES pH 7.4, 140 mM NaCl, 0.1% Tween 20
# Procedure, shortened: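 Fluorogenic substrate built on the C2 cleavage site, in 20 mM HEPES pH 7.4, 140 mM NaCl, 0.1% Tween 20, run at room temperature for 20 min before an acetic acid stop. Fluorescence normalised to DMSO-only and no-enzyme controls; IC50 taken as equivalent to Ki, with tight- or slow-binding inhibitors treated separately.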
# T1 sequence (O00187 445-686 limits assumed): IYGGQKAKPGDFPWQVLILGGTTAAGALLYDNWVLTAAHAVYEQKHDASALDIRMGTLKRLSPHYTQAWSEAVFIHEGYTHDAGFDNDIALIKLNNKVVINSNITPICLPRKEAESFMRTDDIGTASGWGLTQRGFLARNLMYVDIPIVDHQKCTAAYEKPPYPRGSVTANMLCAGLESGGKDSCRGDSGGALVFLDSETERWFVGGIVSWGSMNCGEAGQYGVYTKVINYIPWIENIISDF
# T1 sequence (O00187 298-444 partner limits assumed): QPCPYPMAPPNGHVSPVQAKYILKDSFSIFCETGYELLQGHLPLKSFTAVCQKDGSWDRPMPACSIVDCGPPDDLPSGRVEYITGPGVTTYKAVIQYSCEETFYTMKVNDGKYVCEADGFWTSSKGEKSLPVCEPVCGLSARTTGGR
row,Ki [µM],SMILES
1,0.5 to 2.5,"C[C@H](NC(=O)[C@H]1C[C@H](c2ccccc2)CN1)C(=O)NCc1cc2ncccc2[nH]1 [Compound I-6, (2R,4R)—N—((S)-1-(((1H-Pyrrolo[3,2-b]pyridin-2-yl)methyl)amino)-1-oxopropan-2-yl)-4-phenylpyrrolidine-2-carboxamide di-trifluoroacetate]"
2,< 0.5,"C[C@H](NC(=O)[C@H]1C[C@@H](c2ccccc2)CCN1CCP(=O)(O)O)C(=O)NCc1cc2cnccc2[nH]1 [Compound I-39, (2-((2R,4S)-2-(((S)-1-(((1H-Pyrrolo[3,2-C]Pyridin-2-Yl)Methyl)Amino)-1-Oxopropan-2-Yl)Carbamoyl)-4-Phenylpiperidin-1-Yl)Ethyl)Phosphonic Acid Di-Trifluoroacetate]"
3,< 0.5,"C[C@H](NC(=O)[C@H]1C[C@@H](c2ccc(-c3ccccc3)cc2)CCN1)C(=O)NCc1cc2cnccc2[nH]1 [Compound I-74, (2R,4S)—N—((S)-1-(((1H-Pyrrolo[3,2-C]Pyridin-2-Yl)Methyl)Amino)-1-Oxopropan-2-Yl)-4-([1,1′-Biphenyl]-4-Yl)Piperidine-2-Carboxamide Di-Trifluoroacetate]"
4,< 0.5,"C[C@H](NC(=O)[C@H]1C[C@H](C2(c3ccccc3)CC2)CN1)C(=O)NCc1cc2cnccc2[nH]1 [Compound I-8, (2R,4R)—N—((S)-1-(((1H-Pyrrolo[3,2-C]Pyridin-2-Yl)Methyl)Amino)-1-Oxopropan-2-Yl)-4-(1-Phenylcyclopropyl)Pyrrolidine-2-Carboxamide Di-Trifluoroacetate]"
5,< 0.5,"C[C@H](NC(=O)[C@H]1C[C@H](Cc2ccc(F)c(Cl)c2)CN1)C(=O)NCc1ccc(C(=N)N)cc1 [Compound I-23, (2R,4S)—N—((S)-1-((4-Carbamimidoylbenzyl)Amino)-1-Oxopropan-2-Yl)-4-(3-Chloro-4-Fluorobenzyl)Pyrrolidine-2-Carboxamide Di-Trifluoroacetate]"
6,< 0.5,"C[C@H](NC(=O)[C@H]1C[C@H](Cc2cc(Cl)c(Cl)s2)CN1)C(=O)NCc1cc2cnccc2[nH]1 [Compound I-22, (2R,4R)—N—((S)-1-(((1H-Pyrrolo[3,2-C]Pyridin-2-Yl)Methyl)Amino)-1-Oxopropan-2-Yl)-4-((4,5-Dichlorothiophen-2-Yl)Methyl)Pyrrolidine-2-Carboxamide Di-Trifluoroacetate]"
7,> 10,"C[C@H](NC(=O)[C@H]1C[C@H](Cc2ccccc2)CN1)C(=O)NCc1ccc2nccn2c1 [Compound I-59, (2R,4S)-4-Benzyl-N—((S)-1-((Imidazo[1,2-A]Pyridin-6-Ylmethyl)Amino)-1-Oxopropan-2-Yl Pyrrolidine-2-Carboxamide Trifluoroacetate]"
8,< 0.5,"N=C(N)c1ccc(CNC(=O)[C@@H]2CCN2C(=O)[C@H]2C[C@@H](c3ccccc3)CCN2)cc1 [Compound I-66, (S)—N-(4-Carbamimidoylbenzyl)-1-((2R,4S)-4-Phenylpiperidine-2-Carbonyl)Azetidine-2-Carboxamide Trifluoroacetate]"
9,2.5 to 10,"Cc1nc(N)ccc1CNC(=O)[C@H](C)NC(=O)[C@H]1C[C@@H](c2ccccc2)CCN1CCNS(C)(=O)=O [Compound I-41, (2R,4S)—N—((S)-1-(((6-Amino-2-Methylpyridin-3-Yl)Methyl)Amino)-1-Oxopropan-2-Yl)-1-(2-(Methylsulfonamido)Ethyl)-4-Phenylpiperidine-2-Carboxamide Di-Trifluoroacetate]"
10,2.5 to 10,"CCOC(=O)CCN1CC[C@H](c2ccccc2)C[C@@H]1C(=O)N[C@@H](C)C(=O)NCc1cc(Cl)ccc1-n1cnnn1 [Compound I-28, Ethyl 3-((2R,4S)-2-(((S)-1-((5-Chloro-2-(1H-Tetrazol-1-Yl)Benzyl)Amino)-1-Oxopropan-2-Yl)Carbamoyl)-4-Phenylpiperidin-1-Yl)Propanoate]"
11,< 0.5,"C[C@H](NC(=O)[C@H]1C[C@@H](c2ccc(N3CCOCC3)cc2)CCN1)C(=O)NCc1ccc(C(=N)N)cc1 [Compound I-76, (2R,4S)—N—((S)-1-((4-Carbamimidoylbenzyl)Amino)-1-Oxopropan-2-Yl)-4-(4-Morpholinophenyl)Piperidine-2-Carboxamide Dihydrochloride]"
12,< 0.5,"C[C@H](NC(=O)[C@H]1C[C@H](Cc2cccc(Cl)c2)CN1)C(=O)NCc1cnc2[nH]cc(Cl)c2c1 [Compound I-82, (2R,4S)—N—((S)-1-(((3-Chloro-1H-Pyrrolo[2,3-B]Pyridin-5-Yl)Methyl)Amino)-1-Oxopropan-2-Yl)-4-(3-Chlorobenzyl)Pyrrolidine-2-Carboxamide Dihydrochloride]"
13,< 0.5,"C[C@H](NC(=O)[C@H]1C[C@H](c2cccc(CO)c2)CN1)C(=O)NCc1ccc(C(=N)N)cc1 [Compound I-94, (2R,4R)—N—((S)-1-((4-Carbamimidoylbenzyl)Amino)-1-Oxopropan-2-Yl)-4-(3-(Hydroxymethyl)Phenyl)Pyrrolidine-2-Carboxamide Di-Trifluoroacetate]"
14,< 0.5,"CCN1C[C@@H](Cc2ccc(F)c(Cl)c2)C[C@@H]1C(=O)N[C@@H](C)C(=O)NCc1cnc2[nH]cc(Cl)c2c1 [Compound I-27, (2R,4S)—N—((S)-1-(((3-Chloro-1H-Pyrrolo[2,3-B]Pyridin-5-Yl)Methyl)Amino)-1-Oxopropan-2-Yl)-4-(3-Chloro-4-Fluorobenzyl)-1-Ethylpyrrolidine-2-Carboxamide]"
15,< 0.5,"CCN1C[C@@H](Cc2ccc(F)c(Cl)c2)C[C@@H]1C(=O)N[C@@H](C)C(=O)NCc1cnc2c(c1)c(Cl)cn2C [Compound I-26, (2R,4S)—N—((S)-1-(((3-Chloro-1-Methyl-1H-Pyrrolo[2,3-B]Pyridin-5-Yl)Methyl)Amino)-1-Oxopropan-2-Yl)-4-(3-Chloro-4-Fluorobenzyl)-1-Ethylpyrrolidine-2-Carboxamide]"
16,< 0.5,"C[C@H](NC(=O)[C@H]1C[C@@H](c2ccc(-c3cccnc3)cc2)CCN1)C(=O)NCc1ccc(C(=N)N)cc1 [Compound I-72, (2R,4S)—N—((S)-1-((4-Carbamimidoylbenzyl)Amino)-1-Oxopropan-2-Yl)-4-(4-(Pyridin-3-Yl)Phenyl)Piperidine-2-Carboxamide Di-Trifluoroacetate]"
17,< 0.5,"Cc1nc(N)ccc1CNC(=O)[C@@H]1CCN1C(=O)[C@H]1C[C@@H](c2ccccc2)CCN1 [Compound I-63, (S)—N-((6-Amino-2-Methylpyridin-3-Yl)Methyl)-1-((2R,4S)-4-Phenylpiperidine-2-Carbonyl)Azetidine-2-Carboxamide Di-Trifluoroacetate]"
18,< 0.5,"Cc1nc(N)ccc1CNC(=O)[C@@H]1COC(=O)N1C(=O)[C@H]1C[C@H](Cc2ccccc2)CN1 [Compound I-58, (S)—N-((6-Amino-2-Methylpyridin-3-Yl)Methyl)-3-((2R,4S)-4-Benzylpyrrolidine-2-Carbonyl)-2-Oxooxazolidine-4-Carboxamide Di-Trifluoroacetate]"
19,< 0.5,"Cc1nc(N)ccc1CNC(=O)[C@H](C)NC(=O)[C@H]1C[C@H](Cc2ccc(C#N)s2)CN1 [Compound I-86, (2R,4R)—N—((S)-1-(((6-Amino-2-Methylpyridin-3-Yl)Methyl)Amino)-1-Oxopropan-2-Yl)-4-((5-Cyanothiophen-2-Yl)Methyl)Pyrrolidine-2-Carboxamide Dihydrochloride]"
20,< 0.5,"CCOC(=O)CCN1CC[C@H](c2ccccc2)C[C@@H]1C(=O)N[C@@H](C)C(=O)NCc1cc2cnccc2[nH]1 [Compound I-106, Ethyl 3-((2R,4S)-2-(((S)-1-(((1H-pyrrolo[3,2-c]pyridin-2-yl)methyl)amino)-1-oxopropan-2-yl)carbamoyl)-4-phenylpiperidin-1-yl)propanoate]"
21,< 0.5,"Cc1nc(N)ccc1CNC(=O)[C@H](CO)NC(=O)[C@H]1C[C@H](Cc2ccccc2)CN1 [Compound I-57, (2R,4S)—N—((S)-1-(((6-Amino-2-Methylpyridin-3-Yl)Methyl)Amino)-3-Hydroxy-1-Oxopropan-2-Yl)-4-Benzylpyrrolidine-2-Carboxamide Dihydrochloride]"
22,< 0.5,"Cc1nc(N)ccc1CNC(=O)[C@@H]1CCN1C(=O)[C@H]1C[C@H](Cc2ccc(-c3ccccc3)cc2)CN1 [Compound I-62, (S)-1-((2R,4S)-4-([1,1′-Biphenyl]-4-Ylmethyl)Pyrrolidine-2-Carbonyl)-N-((6-Amino-2-Methylpyridin-3-Yl)Methyl)Azetidine-2-Carboxamide Di-Trifluoroacetate]"
23,< 0.5,"C[C@H](NC(=O)[C@H]1C[C@H](Cc2ccccc2)CN1)C(=O)NCc1ccc2c(c1)CNC2 [Compound I-9, (2R,4S)-4-Benzyl-N—((S)-1-((Isoindolin-5-Ylmethyl)Amino)-1-Oxopropan-2-Yl)Pyrrolidine-2-Carboxamide Di-Trifluoroacetate]"
24,< 0.5,"Cc1nc(N)ccc1CNC(=O)[C@@H]1CCN1C(=O)[C@H]1C[C@H](c2cccc(-c3ccccc3)c2)CN1 [Compound I-64, (S)-1-((2R,4R)-4-([1,1′-Biphenyl]-3-Yl)Pyrrolidine-2-Carbonyl)-N-((6-Amino-2-Methylpyridin-3-Yl)Methyl)Azetidine-2-Carboxamide Di-Trifluoroacetate]"
25,< 0.5,C[C@H](NC(=O)[C@H]1C[C@@H](c2cccc(C(N)=O)c2)CN1)C(=O)NCc1ccc(C(=N)N)cc1 [Compound I-15]
26,< 0.5,"C[C@H](NC(=O)[C@H]1C[C@@H](c2ccc(-c3cccnc3)cc2)CCN1)C(=O)NCc1cc(Cl)ccc1-n1cnnn1 [Compound I-101, (2R,4S)—N—((S)-1-((5-chloro-2-(1H-tetrazol-1-yl)benzyl)amino)-1-oxopropan-2-yl)-4-(4-(pyridin-3-yl)phenyl)piperidine-2-carboxamide trifluoroacetate]"
27,< 0.5,"Cc1nc(N)ccc1CNC(=O)[C@H](C)NC(=O)[C@H]1C[C@H](Cc2cccc(C3CC3)c2)CN1 [Compound I-44, (2R,4S)—N—((S)-1-(((6-Amino-2-Methylpyridin-3-Yl)Methyl)Amino)-1-Oxopropan-2-Yl)-4-(3-Cyclopropylbenzyl)Pyrrolidine-2-Carboxamide Di-Trifluoroacetate]"

# From patent US12486278B2, “MASP-2 inhibitors and methods of use” (Omeros Corporation, priority 2019, dated 2025)
